In article PMC7356367, “Design, Synthesis, and Biological Evaluation of 8-Mercapto-3,7-Dihydro-1H-Purine-2,6-Diones as Potent Inhibitors of SIRT1, SIRT2, SIRT3, and SIRT5” (Molecules, 2020):

Assays:
SIRT2 [1] = target: T1, SIRT2 (Homo sapiens, UniProt Q8IXJ6); experiment: Fluorescent deacetylation assay, SIRT2
T1 sequence (Q8IXJ6 1-389): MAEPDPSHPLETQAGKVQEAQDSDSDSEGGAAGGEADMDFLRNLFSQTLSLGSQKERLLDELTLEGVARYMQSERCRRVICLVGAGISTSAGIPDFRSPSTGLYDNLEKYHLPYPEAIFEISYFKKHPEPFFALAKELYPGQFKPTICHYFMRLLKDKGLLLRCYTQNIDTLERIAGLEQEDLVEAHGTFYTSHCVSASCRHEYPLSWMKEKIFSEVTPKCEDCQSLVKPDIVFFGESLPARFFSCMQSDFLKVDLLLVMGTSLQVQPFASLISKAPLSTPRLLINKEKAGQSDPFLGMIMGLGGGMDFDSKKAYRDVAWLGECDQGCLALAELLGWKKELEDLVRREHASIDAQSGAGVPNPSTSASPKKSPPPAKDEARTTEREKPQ

SIRT5 = target: T2, SIRT5 (Homo sapiens, UniProt Q9NXA8); experiment: Fluorescent deacylation assay (succinyl-peptide), SIRT5
T2 sequence (Q9NXA8 37-310): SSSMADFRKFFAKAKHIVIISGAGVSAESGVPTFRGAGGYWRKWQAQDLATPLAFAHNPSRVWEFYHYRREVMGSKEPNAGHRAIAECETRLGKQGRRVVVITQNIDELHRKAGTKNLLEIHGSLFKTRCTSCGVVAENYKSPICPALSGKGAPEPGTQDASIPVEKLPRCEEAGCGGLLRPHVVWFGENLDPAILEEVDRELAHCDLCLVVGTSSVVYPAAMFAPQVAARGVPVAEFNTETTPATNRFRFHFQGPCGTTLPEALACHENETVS

SIRT6 = SIRT6 (Homo sapiens, UniProt Q8N6T7); experiment: Fluorescent deacetylation assay, SIRT6
[2] = Stability in the assay buffer and activity assay by HPLC; conditions: overall statement
[3] = Stability of DMSO solution by mass spectrometry; conditions: nine months, refrigerator 4 °C
SH-SY5Y cells = experiment: MTT assay for toxicity; type: cell-based; conditions: 24 hours
Method: To evaluate the toxicity of the compounds, we carried out MTT assays on SH-SY5Y
cells incubated with various concentrations of compounds 4 and 15 for 24 hours. We […]

SIRT3 = target: T3, SIRT3 (Homo sapiens, UniProt Q9NTG7); experiment: Fluorescent deacetylation assay with internally quenched acetyl peptide and trypsin development, SIRT3
T3 sequence (Q9NTG7 118-399): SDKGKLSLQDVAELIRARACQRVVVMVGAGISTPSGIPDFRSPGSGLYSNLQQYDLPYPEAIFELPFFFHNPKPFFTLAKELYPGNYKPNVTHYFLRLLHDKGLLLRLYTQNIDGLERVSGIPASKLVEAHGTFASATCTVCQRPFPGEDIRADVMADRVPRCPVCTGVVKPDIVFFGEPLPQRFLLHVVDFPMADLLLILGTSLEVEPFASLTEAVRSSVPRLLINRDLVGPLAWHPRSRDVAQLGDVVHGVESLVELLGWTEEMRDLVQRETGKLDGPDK

SIRT1 [4] = target: T4, SIRT1 (Homo sapiens, UniProt Q96EB6); experiment: Fluorescent deacetylation assay, SIRT1; type: biochemical; conditions: 0.8 μM SIRT1, 10 μM acetyl-peptide, 1.2 mM NAD+
T4 construct: Human SIRT1 (183-505-(GGGS)2-641-665); His6 with sumo-cleavage site (N); made in house; host or cells: E. coli BL21
T4 sequence (Q96EB6 with tags, fused parts or gaps): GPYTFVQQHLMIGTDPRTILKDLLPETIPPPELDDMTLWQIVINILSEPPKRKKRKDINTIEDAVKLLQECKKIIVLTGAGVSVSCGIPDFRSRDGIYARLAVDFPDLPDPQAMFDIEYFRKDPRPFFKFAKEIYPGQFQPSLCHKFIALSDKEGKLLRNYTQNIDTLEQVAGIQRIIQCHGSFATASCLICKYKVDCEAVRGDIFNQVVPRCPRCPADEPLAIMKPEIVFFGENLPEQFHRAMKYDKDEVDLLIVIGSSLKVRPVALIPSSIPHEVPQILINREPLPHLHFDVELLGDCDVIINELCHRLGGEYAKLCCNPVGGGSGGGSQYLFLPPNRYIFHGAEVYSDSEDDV
Method: All compounds were dissolved in 10 mM stock solution in DMSO. […] The fluorescence was measured using a microplate reader (SpectraMax M5, Molecular Devices, San Jose, CA, USA) with excitation at 320 nm and emission at 420 nm. All reactions were done in triplicate.
IC50 were determined for other sirtuins using the same assay as for SIRT3.

SIRT2 [5] = conditions: Figure 1, reported sirtuin inhibitors; cited from earlier work
SIRT1 [6] = conditions: Figure 1, reported sirtuin inhibitors; cited from earlier work

Sequence of SIRT6 (Q8N6T7 whole entry): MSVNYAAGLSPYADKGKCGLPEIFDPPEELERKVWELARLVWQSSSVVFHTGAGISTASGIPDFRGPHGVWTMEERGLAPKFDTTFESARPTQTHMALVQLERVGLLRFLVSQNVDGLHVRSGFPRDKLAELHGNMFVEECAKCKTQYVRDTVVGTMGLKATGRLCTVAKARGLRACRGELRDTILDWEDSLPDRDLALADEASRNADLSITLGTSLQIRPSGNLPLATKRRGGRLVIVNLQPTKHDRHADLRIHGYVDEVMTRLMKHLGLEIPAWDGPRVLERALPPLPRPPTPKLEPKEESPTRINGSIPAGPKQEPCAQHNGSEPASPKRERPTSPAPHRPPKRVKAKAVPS

| SMILES | IC50 (SIRT2 [1]) [nM] | IC50 (SIRT5) [nM] | IC50 (SIRT6) [nM] | melting point [°C] | IC50 (SIRT3) [nM] | IC50 (SIRT1 [4]) [µM] | other results |
| --- | --- | --- | --- | --- | --- | --- | --- |
| CCCn1c(=O)c2[nH]c(SSc3nc4c([nH]3)c(=O)n(CCC)c(=O)n4CCC)nc2n(CCC)c1=O [Compound 4, 8,8’-Disulfanediylbis(1,3-dipropyl-3,7-dihydro-1H-purine-2,6-dione)] | 1190 ± 60 | 390 ± 30 | 129000 ± 16100 | 241 to 243 | – | – | Toxicity (MTT) at 50 μM (SH-SY5Y cells): displayed toxicity; Toxicity (MTT) at concentrations up to 20 μM (SH-SY5Y cells): nontoxic |
| CCn1c(=O)n(CC2CCOCC2)c(=O)c2[nH]c(SSc3nc4c([nH]3)c(=O)n(CC3CCOCC3)c(=O)n4CC)nc21 [Compound 13, 8,8’-Disulfanediylbis(3-ethyl-1-((tetrahydro-2H-pyran-4-yl)methyl)-3,7-dihydro-1H-purine-2,6-dione)] | 2250 ± 120 | 500 ± 10 | 156000 ± 6500 | 229 to 231 | – | – | – |
| CCn1c(=O)n(CC2CCCO2)c(=O)c2[nH]c(SSc3nc4c([nH]3)c(=O)n(CC3CCCO3)c(=O)n4CC)nc21 (stereo not drawn) [Compound 14, 8,8’-Disulfanediylbis(3-ethyl-1-((tetrahydrofuran-2-yl)methyl)-3,7-dihydro-1H-purine-2,6-dione)] | 1620 ± 50 | 540 ± 20 | 127000 ± 10200 | 166 to 168 | 690 ± 120 | 0.15 ± 0.02 | Fold enhanced activity compared to compound 12 (SIRT3) (SIRT3; relative to compound 12): 2.5 fold |
| CS(=O)(=O)NCCC1CCN(c2ncnc3cc(C(N)=O)sc23)CC1 [ELT-31, reference compound] | 120 ± 10 | > 500000 | 462000 ± 14900 | – | – | – | – |
| CC(C(=O)Nc1cccc(/N=C/c2c(O)ccc3ccccc23)c1)c1ccccc1 (stereo not drawn) [salermide] | – | – | – | – | – | – | IC50 (SIRT1 [6]): 76000 nM; IC50 (SIRT2 [5]): 45000 nM |
| Cc1ccc(C(=O)Nc2ccc(S(=O)(=O)O)c3cc(S(=O)(=O)O)cc(S(=O)(=O)O)c23)cc1NC(=O)c1cccc(NC(=O)Nc2cccc(C(=O)Nc3cc(C(=O)Nc4ccc(S(=O)(=O)O)c5cc(S(=O)(=O)O)cc(S(=O)(=O)O)c45)ccc3C)c2)c1 [suramin] | – | – | – | – | – | – | IC50 (SIRT2 [5]): 1200 nM |

Now from value to compound, other results behind:

| IC50 (SIRT2 [1]) [nM] | IC50 (SIRT5) [nM] | IC50 (SIRT6) [nM] | melting point [°C] | IC50 (SIRT3) [nM] | IC50 (SIRT1 [4]) [µM] | SMILES | other results |
| --- | --- | --- | --- | --- | --- | --- | --- |
| 1170 ± 40 | 420 ± 10 | 116000 ± 6200 | – | – | – | CCn1c(=O)c2[nH]c(SSc3nc4c([nH]3)c(=O)n(CC)c(=O)n4CC)nc2n(CC)c1=O [Compound 1, 8,8′-Disulfanediylbis(1,3-diethyl-3,7-dihydro-1H-purine-2,6-dione)] | Stability in the activity assays [2]: stable in the activity assays; Stability in DMSO [3]: remains stable |
| 4860 ± 80 | 1510 ± 100 | 297000 ± 11300 | 240 to 242 | 1770 ± 50 | 0.43 ± 0.03 | CCn1c(=O)n(CC(C)C)c(=O)c2[nH]c(SSc3nc4c([nH]3)c(=O)n(CC(C)C)c(=O)n4CC)nc21 [Compound 12, 8,8’-Disulfanediylbis(3-ethyl-1-isobutyl-3,7-dihydro-1H-purine-2,6-dione)] | – |
| 1350 ± 50 | 450 ± 10 | 103000 ± 6300 | 225 to 227 | – | – | CCn1c(=O)n(CCc2ccccc2)c(=O)c2[nH]c(SSc3nc4c([nH]3)c(=O)n(CCc3ccccc3)c(=O)n4CC)nc21 [Compound 15, 8,8’-Disulfanediylbis(3-ethyl-1-phenethyl-3,7-dihydro-1H-purine-2,6-dione)] | Toxicity (MTT) at 50 μM (SH-SY5Y cells): displayed toxicity; Toxicity (MTT) at concentrations up to 20 μM (SH-SY5Y cells): nontoxic; Stability in the activity assays [2]: stable |
| 2030 ± 40 | 840 ± 80 | 111000 ± 2600 | 216 to 218 | 460 ± 40 | 0.19 ± 0.01 | CCn1c(=O)n(CCc2ccc(F)cc2)c(=O)c2[nH]c(SSc3nc4c([nH]3)c(=O)n(CCc3ccc(F)cc3)c(=O)n4CC)nc21 [Compound 16, 8,8’-Disulfanediylbis(3-ethyl-1-(4-fluorophenethyl)-3,7-dihydro-1H-purine-2,6-dione)] | – |
| 2190 ± 80 | 1000 ± 30 | 128000 ± 4100 | 168 to 171 | 1150 ± 80 | 0.41 ± 0.04 | CCn1c(=O)n(CCc2ccc(NC(=O)OC(C)(C)C)cc2)c(=O)c2[nH]c(SSc3nc4c([nH]3)c(=O)n(CCc3ccc(NC(=O)OC(C)(C)C)cc3)c(=O)n4CC)nc21 [Compound 17, di-tert-Butyl(((Disulfanediylbis(3-ethyl-2,6-dioxo-2,3,6,7-tetrahydro-1H-purine-8,1-diyl))bis(ethane-2,1-diyl))bis(4,1-phenylene))dicarbamate] | – |
| 2160 ± 80 | – | 102000 ± 9100 | 216 to 219 | – | – | CCn1c(=O)n(CCc2ccc(OC)cc2)c(=O)c2[nH]c(SSc3nc4c([nH]3)c(=O)n(CCc3ccc(OC)cc3)c(=O)n4CC)nc21 [Compound 18, 8,8’-Disulfanediylbis(3-ethyl-1-(4-methoxyphenethyl)-3,7-dihydro-1H-purine-2,6-dione)] | – |
| 9440 ± 190 | 26100 ± 3150 | 452000 ± 9800 | 174 to 175 | 8520 ± 220 | 1.87 ± 0.04 | CCn1c(=O)n(CCC(=O)Nc2cccc(C(F)(F)F)c2)c(=O)c2[nH]c(SSc3nc4c([nH]3)c(=O)n(CCC(=O)Nc3cccc(C(F)(F)F)c3)c(=O)n4CC)nc21 [Compound 19, 3,3’-(Disulfanediylbis(3-ethyl-2,6-dioxo-2,3,6,7-tetrahydro-1H-purine-8,1-diyl))bis(N-(3-(trifluoromethyl)phenyl)propanamide)] | Fold reduced inhibitory activity compared with 15 (SIRT3) (SIRT3; relative to compound 15): 23 fold |
| 4610 ± 130 | 920 ± 40 | 210000 ± 5900 | – | 970 ± 60 | 0.49 ± 0.01 | CCn1c(=O)n(CCc2ccc(N)cc2)c(=O)c2[nH]c(SSc3nc4c([nH]3)c(=O)n(CCc3ccc(N)cc3)c(=O)n4CC)nc21 [Compound 20, 8,8’-Disulfanediylbis(1-(4-aminophenethyl)-3-ethyl-3,7-dihydro-1H-purine-2,6-dione)] | – |
